The values that follow are results of earlier work, collected in article PMC8018653, “Gender-based differences in brain and plasma pharmacokinetics of letrozole in sprague-dawley rats: Application of physiologically-based pharmacokinetic modeling to gain quantitative insights” (PLoS ONE, 2021).

Structures are written as SMILES.

The conditions of data set [1]: cited from earlier work.
On the set-up of data set [2]: method as in PMID 16489364. Particulars: cited from earlier work.
On the set-up of data set [3]: method as in PMID 30357450. The settings on record: NSG mice; cited from earlier work.

Take `N#Cc1ccc(C(c2ccc(C#N)cc2)n2cncn2)cc1` [letrozole]: the Blood-to-plasma partition ratio in data set [1] (PBPK input, ref CDER NDA 20–726) is on record as 0.8. Besides, the plasma protein binding entry in data set [1] was “≈ 60%”. Moreover, the oral bioavailability in data set [2] was about 100%. Besides, in data set [3], the half-life is ~ 3 hrs.
